# Assay results as given in US11877574B2, “Herbicidal oil dispersion and method” (Arysta LifeScience Inc., priority 2018, dated 2024).
# Key:
# [1] = Active ingredient assay and recovery on storage (Table 2); format: physicochemical
# [2] = Active ingredient assay on storage, SCB239-12 (Table 3); format: physicochemical
structure (smiles),measurement,setting,value
"CCCCCCC(C)OC(=O)COc1nc(F)c(Cl)c(N)c1Cl (stereo not drawn) [Fluroxypyr, Fluroxypyr Meptyl]",Assay (% w/w),"[1]; 1 month storage, 0° C.",11.47 % w/w
same,Assay (% w/w),"[1]; 1 month storage, 40° C.",11.50 % w/w
same,Assay (% w/w),"[1]; 1 month storage, T/C",11.52 % w/w
same,Assay (% w/w),"[1]; 1 month storage, −10° C.",11.49 % w/w
same,Assay (% w/w),"[1]; 2 month storage, 0° C.",11.56 % w/w
same,Assay (% w/w),"[1]; 2 month storage, 40° C.",11.56 % w/w
same,Assay (% w/w),"[1]; 2 month storage, T/C",11.55 % w/w
same,Assay (% w/w),"[1]; 2 month storage, −10° C.",11.55 % w/w
same,Assay (% w/w),"[1]; 2 wks, 54° C.",11.63 % w/w
same,Assay (% w/w),"[1]; 3 month storage, 0° C.",11.63 % w/w
same,Assay (% w/w),"[1]; 3 month storage, 25° C.",11.68 % w/w
same,Assay (% w/w),"[1]; 3 month storage, 40° C.",11.69 % w/w
same,Assay (% w/w),"[1]; 3 month storage, T/C",11.71 % w/w
same,Assay (% w/w),"[1]; 3 month storage, −10° C.",11.71 % w/w
same,Assay (% w/w),"[1]; 6 month storage, 25° C.",11.36 % w/w
same,Assay (% w/w),"[1]; 9 month storage, 25° C.",11.56 % w/w
same,Assay (% w/w),"[1]; 12 month storage, 25° C.",11.63 % w/w
same,Assay (% w/w),[1]; F/T Sample,11.61 % w/w
same,Assay (% w/w),[1]; initial,11.60 % w/w
same,Assay (% w/w),"[2]; 1 month storage, 0° C.",11.25 % w/w
same,Recovery of active ingredient (% of initial assay),"[2]; 1 month storage, 0° C.",99.37 % w/w
same,Assay (% w/w),"[2]; 1 month storage, 40° C.",11.24 % w/w
same,Recovery of active ingredient (% of initial assay),"[2]; 1 month storage, 40° C.",99.33 % w/w
same,Assay (% w/w),"[2]; 1 month storage, T/C",11.25 % w/w
same,Recovery of active ingredient (% of initial assay),"[2]; 1 month storage, T/C",99.36 % w/w
same,Assay (% w/w),"[2]; 2 month storage, 0° C.",11.19 % w/w
same,Recovery of active ingredient (% of initial assay),"[2]; 2 month storage, 0° C.",98.83 % w/w
same,Assay (% w/w),"[2]; 2 month storage, 40° C.",11.13 % w/w
same,Recovery of active ingredient (% of initial assay),"[2]; 2 month storage, 40° C.",98.36 % w/w
same,Assay (% w/w),"[2]; 2 month storage, T/C",11.17 % w/w
same,Recovery of active ingredient (% of initial assay),"[2]; 2 month storage, T/C",98.68 % w/w
same,Assay (% w/w),"[2]; 2 wks, 54° C.",11.26 % w/w
same,Recovery of active ingredient (% of initial assay),"[2]; 2 wks, 54° C.",99.48 % w/w
same,Assay (% w/w),"[2]; 3 month storage, 0° C.",11.23 % w/w
same,Recovery of active ingredient (% of initial assay),"[2]; 3 month storage, 0° C.",99.21 % w/w
same,Assay (% w/w),"[2]; 3 month storage, 25° C.",11.20 % w/w
same,Recovery of active ingredient (% of initial assay),"[2]; 3 month storage, 25° C.",98.92 % w/w
same,Assay (% w/w),"[2]; 3 month storage, 40° C.",11.21 % w/w
same,Recovery of active ingredient (% of initial assay),"[2]; 3 month storage, 40° C.",99.04 % w/w
same,Assay (% w/w),"[2]; 3 month storage, −10° C.",11.13 % w/w
same,Recovery of active ingredient (% of initial assay),"[2]; 3 month storage, −10° C.",98.30 % w/w
same,Assay (% w/w),[2]; F/T sample,11.28 % w/w
same,Recovery of active ingredient (% of initial assay),[2]; F/T sample,99.68 % w/w
same,Assay (% w/w),[2]; Initial,11.32 % w/w
"CCCCC(CC)COC(=O)COc1ccc(Cl)cc1C (stereo not drawn) [MCPA, 2-ethylhexyl 2-(4-chloro-2-methylphenoxy) acetate]",Assay (% w/w),"[1]; 1 month storage, 0° C.",34.61 % w/w
same,Assay (% w/w),"[1]; 1 month storage, 40° C.",34.69 % w/w
same,Assay (% w/w),"[1]; 1 month storage, T/C",34.68 % w/w
same,Assay (% w/w),"[1]; 1 month storage, −10° C.",34.65 % w/w
same,Assay (% w/w),"[1]; 2 month storage, 0° C.",34.82 % w/w
same,Assay (% w/w),"[1]; 2 month storage, 40° C.",34.90 % w/w
same,Assay (% w/w),"[1]; 2 month storage, T/C",34.94 % w/w
same,Assay (% w/w),"[1]; 2 month storage, −10° C.",34.92 % w/w
same,Assay (% w/w),"[1]; 2 wks, 54° C.",35.05 % w/w
same,Assay (% w/w),"[1]; 3 month storage, 0° C.",35.25 % w/w
same,Assay (% w/w),"[1]; 3 month storage, 25° C.",35.23 % w/w
same,Assay (% w/w),"[1]; 3 month storage, 40° C.",35.28 % w/w
same,Assay (% w/w),"[1]; 3 month storage, T/C",35.30 % w/w
same,Assay (% w/w),"[1]; 3 month storage, −10° C.",35.36 % w/w
same,Assay (% w/w),"[1]; 6 month storage, 25° C.",34.14 % w/w
same,Assay (% w/w),"[1]; 9 month storage, 25° C.",34.73 % w/w
same,Assay (% w/w),"[1]; 12 month storage, 25° C.",34.84 % w/w
same,Assay (% w/w),[1]; F/T Sample,35.06 % w/w
same,Assay (% w/w),[1]; initial,35.01 % w/w
same,Assay (% w/w),"[2]; 1 month storage, 0° C.",33.65 % w/w
same,Recovery of active ingredient (% of initial assay),"[2]; 1 month storage, 0° C.",99.88 % w/w
same,Assay (% w/w),"[2]; 1 month storage, 40° C.",33.61 % w/w
same,Recovery of active ingredient (% of initial assay),"[2]; 1 month storage, 40° C.",99.77 % w/w
same,Assay (% w/w),"[2]; 1 month storage, T/C",33.64 % w/w
same,Recovery of active ingredient (% of initial assay),"[2]; 1 month storage, T/C",99.85 % w/w
same,Assay (% w/w),"[2]; 2 month storage, 0° C.",34.07 % w/w
same,Recovery of active ingredient (% of initial assay),"[2]; 2 month storage, 0° C.",101.15 % w/w
same,Assay (% w/w),"[2]; 2 month storage, 40° C.",33.84 % w/w
same,Recovery of active ingredient (% of initial assay),"[2]; 2 month storage, 40° C.",100.47 % w/w
same,Assay (% w/w),"[2]; 2 month storage, T/C",33.97 % w/w
same,Recovery of active ingredient (% of initial assay),"[2]; 2 month storage, T/C",100.84 % w/w
same,Assay (% w/w),"[2]; 2 wks, 54° C.",34.24 % w/w
same,Recovery of active ingredient (% of initial assay),"[2]; 2 wks, 54° C.",101.65 % w/w
same,Assay (% w/w),"[2]; 3 month storage, 0° C.",33.76 % w/w
same,Recovery of active ingredient (% of initial assay),"[2]; 3 month storage, 0° C.",100.21 % w/w
same,Assay (% w/w),"[2]; 3 month storage, 25° C.",33.64 % w/w
same,Recovery of active ingredient (% of initial assay),"[2]; 3 month storage, 25° C.",99.86 % w/w
same,Assay (% w/w),"[2]; 3 month storage, 40° C.",33.61 % w/w
same,Recovery of active ingredient (% of initial assay),"[2]; 3 month storage, 40° C.",99.76 % w/w
same,Assay (% w/w),"[2]; 3 month storage, −10° C.",33.41 % w/w
same,Recovery of active ingredient (% of initial assay),"[2]; 3 month storage, −10° C.",99.20 % w/w
same,Assay (% w/w),[2]; F/T sample,34.30 % w/w
same,Recovery of active ingredient (% of initial assay),[2]; F/T sample,101.84 % w/w
same,Assay (% w/w),[2]; Initial,33.69 % w/w
"CCCCCC(C)OC(=O)COc1ccc(Cl)c2cccnc12 (stereo not drawn) [cloquintocet, Cloquintocet Mexyl]",Assay (% w/w),"[1]; 1 month storage, 0° C.",0.41 % w/w
same,Assay (% w/w),"[1]; 1 month storage, 40° C.",0.41 % w/w
same,Assay (% w/w),"[1]; 1 month storage, T/C",0.41 % w/w
same,Assay (% w/w),"[1]; 1 month storage, −10° C.",0.41 % w/w
same,Assay (% w/w),"[1]; 2 month storage, 0° C.",0.41 % w/w
same,Assay (% w/w),"[1]; 2 month storage, 40° C.",0.40 % w/w
same,Assay (% w/w),"[1]; 2 month storage, T/C",0.40 % w/w
same,Assay (% w/w),"[1]; 2 month storage, −10° C.",0.41 % w/w
same,Assay (% w/w),"[1]; 2 wks, 54° C.",0.39 % w/w
same,Assay (% w/w),"[1]; 3 month storage, 0° C.",0.41 % w/w
same,Assay (% w/w),"[1]; 3 month storage, 25° C.",0.41 % w/w
same,Assay (% w/w),"[1]; 3 month storage, 40° C.",0.40 % w/w
same,Assay (% w/w),"[1]; 3 month storage, T/C",0.41 % w/w
same,Assay (% w/w),"[1]; 3 month storage, −10° C.",0.42 % w/w
same,Assay (% w/w),"[1]; 6 month storage, 25° C.",0.39 % w/w
same,Assay (% w/w),"[1]; 9 month storage, 25° C.",0.39 % w/w
same,Assay (% w/w),"[1]; 12 month storage, 25° C.",0.39 % w/w
same,Assay (% w/w),[1]; F/T Sample,0.41 % w/w
same,Assay (% w/w),[1]; initial,0.41 % w/w
same,Assay (% w/w),"[2]; 1 month storage, 0° C.",0.35 % w/w
same,Recovery of active ingredient (% of initial assay),"[2]; 1 month storage, 0° C.",100.15 % w/w
same,Assay (% w/w),"[2]; 1 month storage, 40° C.",0.35 % w/w
same,Recovery of active ingredient (% of initial assay),"[2]; 1 month storage, 40° C.",99.58 % w/w
same,Assay (% w/w),"[2]; 1 month storage, T/C",0.35 % w/w
same,Recovery of active ingredient (% of initial assay),"[2]; 1 month storage, T/C",99.83 % w/w
same,Assay (% w/w),"[2]; 2 month storage, 0° C.",0.36 % w/w
same,Recovery of active ingredient (% of initial assay),"[2]; 2 month storage, 0° C.",100.12 % w/w
same,Assay (% w/w),"[2]; 2 month storage, 40° C.",0.35 % w/w
same,Recovery of active ingredient (% of initial assay),"[2]; 2 month storage, 40° C.",100.02 % w/w
same,Assay (% w/w),"[2]; 2 month storage, T/C",0.36 % w/w
same,Recovery of active ingredient (% of initial assay),"[2]; 2 month storage, T/C",101.08 % w/w
same,Assay (% w/w),"[2]; 2 wks, 54° C.",0.35 % w/w
same,Recovery of active ingredient (% of initial assay),"[2]; 2 wks, 54° C.",100.70 % w/w
same,Assay (% w/w),"[2]; 3 month storage, 0° C.",0.35 % w/w
same,Recovery of active ingredient (% of initial assay),"[2]; 3 month storage, 0° C.",100.75 % w/w
same,Assay (% w/w),"[2]; 3 month storage, 25° C.",0.35 % w/w
same,Recovery of active ingredient (% of initial assay),"[2]; 3 month storage, 25° C.",100.17 % w/w
same,Assay (% w/w),"[2]; 3 month storage, 40° C.",0.35 % w/w
same,Recovery of active ingredient (% of initial assay),"[2]; 3 month storage, 40° C.",99.39 % w/w
same,Assay (% w/w),"[2]; 3 month storage, −10° C.",0.35 % w/w
same,Recovery of active ingredient (% of initial assay),"[2]; 3 month storage, −10° C.",99.59 % w/w
same,Assay (% w/w),[2]; F/T sample,0.36 % w/w
same,Recovery of active ingredient (% of initial assay),[2]; F/T sample,101.49 % w/w
same,Assay (% w/w),[2]; Initial,0.35 % w/w
